Our source for the EC50 values is patent US11708348B2, “Protease inhibitors for treatment of coronavirus infections” (The Scripps Research Institute, priority 2021, dated 2023).

A word on the EC50: it is the concentration giving half of the maximal effect.

For this assay, the system named is SARS-CoV-2 strain USA-WA1/2020. The assay can be described thus: microbe, parasite or virus in culture. Format: cell-based. As to conditions: Severe acute respiratory syndrome coronavirus 2, HeLa-ACE2, 24 h, HeLa-ACE2 cells, SARS-CoV-2 infection, 24 h; read-out: EC50, uM (Hela).
On to `CCC(CC)C(=O)N1CC2(CC2)C[C@H]1C(=O)N[C@@H](C[C@@H]1CCNC1=O)C(=O)COC(F)(F)F` [Compound 448, (S)-5-(2-ethylbutanoyl)-N-((S)-3-oxo-1-((S)-2-oxopyrrolidin-3-yl)-4-(trifluoromethoxy)butan-2-yl)-5-azaspiro[2.4]heptane-6-carboxamide], for which the EC50 fell in the range of 0.05 to 0.2 µM.

Turning to `CC(C)C[C@@H](O)C(=O)N(C(=O)[C@@H]1C[C@@]2(C)C[C@H]2N1)[C@@H](C[C@@H]1CCNC1=O)C(=O)COC(F)(F)F` [Compound 449, (1R,3S,5R)-2-((R)-2-hydroxy-4-methylpentanoyl)-5-methyl-N-((S)-3-oxo-1-((S)-2-oxopyrrolidin-3-yl)-4-(trifluoromethoxy)butan-2-yl)-2-azabicyclo[3.1.0]-hexane-3-carboxamide], the half-maximal effective concentration (EC50) was 0.05 to 0.2 µM.

Turning to `O=C1NCC[C@H]1C[C@H](NC(=O)[C@@H]1CC2(CC2)CN1C(=O)[C@H](O)CC(F)F)C(=O)COC(F)(F)F` [Compound 450, (S)-5-((R)-4,4-difluoro-2-hydroxybutanoyl)-N-((S)-3-oxo-1-((S)-2-oxopyrrolidin-3-yl)-4-(trifluoromethoxy)butan-2-yl)-5-azaspiro[2.4]heptane-6-carboxamide], the EC50 lay in the range of 0.05 to 0.2 µM.

Regarding `CC(C)[C@@H](O)C(=O)N1[C@H](C(=O)N[C@@H](C[C@@H]2CCNC2=O)C(=O)COC(F)(F)F)C[C@@]2(C)C[C@@H]12` [Compound 452, (1R,3S,5R)-2-((R)-2-hydroxy-3-methylbutanoyl)-5-methyl-N-((S)-3-oxo-1-((S)-2-oxopyrrolidin-3-yl)-4-(trifluoromethoxy)butan-2-yl)-2-azabicyclo[3.1.0]hexane-3-carboxamide], the EC50 is 0.05 to 0.2 µM.

Turning to `CC(C)(C)c1ccc(C(=O)N2CC3(CC3)C[C@H]2C(=O)N[C@@H](C[C@@H]2CCNC2=O)C(=O)COC(F)(F)F)cc1` [Compound 453, (S)-5-(4-(tert-butyl)benzoyl)-N-((S)-3-oxo-1-((S)-2-oxopyrrolidin-3-yl)-4-(trifluoromethoxy)butan-2-yl)-5-azaspiro[2.4]heptane-6-carboxamide], the EC50 was below 0.05 µM.

For the compound `CC(C)(C)C[C@@H](O)C(=O)N1C[C@H]2[C@@H]([C@H]1C(=O)N[C@@H](C[C@@H]1CCNC1=O)C(=O)COC(F)(F)F)C2(C)C` [Compound 454, (1R,2S,5S)-3-((R)-2-hydroxy-4,4-dimethylpentanoyl)-6,6-dimethyl-N-((S)-3-oxo-1-((S)-2-oxopyrrolidin-3-yl)-4-(trifluoromethoxy)butan-2-yl)-3-azabicyclo[3.1.0]-hexane-2-carboxamide], the EC50 was below 0.05 µM.

In the case of `CC(C)(C)c1cccc(C(C)(C)C(=O)N2CC3(CC3)C[C@H]2C(=O)N[C@@H](C[C@@H]2CCNC2=O)C(=O)COC(F)(F)F)c1` [Compound 455, (S)-5-(2-(3-(tert-butyl)phenyl)-2-methylpropanoyl)-N-((S)-3-oxo-1-((S)-2-oxopyrrolidin-3-yl)-4-(trifluoromethoxy)butan-2-yl)-5-azaspiro[2.4]heptane-6-carboxamide], the EC50 lay within 0.05 to 0.2 µM.

Consider `CC(C)(C(=O)N1CC2(CC2)C[C@H]1C(=O)N[C@@H](C[C@@H]1CCNC1=O)C(=O)COC(F)(F)F)c1cccc(C(F)(F)F)c1` [Compound 456, (S)-5-(2-methyl-2-(3-(trifluoromethyl)-phenyl)propanoyl)-N-((S)-3-oxo-1-((S)-2-oxopyrrolidin-3-yl)-4-(trifluoromethoxy)butan-2-yl)-5-azaspiro[2.4]heptane-6-carboxamide], for which the EC50 was below 0.05 µM.

Turning to `O=C1NCC[C@H]1C[C@H](NC(=O)[C@@H]1CC2(CC2)CN1C(=O)c1cccc(C(F)(F)F)c1)C(=O)COC(F)(F)F` [Compound 457, (S)-N-((S)-3-oxo-1-((S)-2-oxopyrrolidin-3-yl)-4-(trifluoromethoxy)butan-2-yl)-5-(3-(trifluoromethyl)-benzoyl)-5-azaspiro[2.4]heptane-6-carboxamide], the EC50 is below 0.05 µM.

Turning to `CC(C)(C)c1cccc(C(=O)N2CC3(CC3)C[C@H]2C(=O)N[C@@H](C[C@@H]2CCNC2=O)C(=O)COC(F)(F)F)c1` [Compound 458, (S)-5-(3-(tert-butyl)benzoyl)-N-((S)-3-oxo-1-((S)-2-oxopyrrolidin-3-yl)-4-(trifluoromethoxy)butan-2-yl)-5-azaspiro[2.4]heptane-6-carboxamide], the EC50 is below 0.05 µM.

Regarding `CC(C)(C)CCC(=O)N1CC2(CC2)C[C@H]1C(=O)N[C@@H](C[C@@H]1CCNC1=O)C(=O)COC(F)(F)F` [Compound 459, (S)-5-(4,4-dimethylpentanoyl)-N-((S)-3-oxo-1-((S)-2-oxopyrrolidin-3-yl)-4-(trifluoromethoxy)butan-2-yl)-5-azaspiro[2.4]heptane-6-carboxamide], the EC50 is below 0.05 µM.

Turning to `O=C(N[C@@H](Cc1ccccc1)C(=O)N[C@@H](C[C@@H]1CCNC1=O)C(=O)COC(F)(F)F)c1cc(-c2ccccc2F)on1` [Compound 460, 5-(2-fluorophenyl)-N-((S)-1-oxo-1-(((S)-3-oxo-1-((S)-2-oxopyrrolidin-3-yl)-4-(trifluoromethoxy)butan-2-yl)amino)-3-phenylpropan-2-yl)isoxazole-3-carboxamide], the EC50 was below 0.05 µM.

In the case of `O=C(N[C@@H](CC1CC1)C(=O)N[C@@H](C[C@@H]1CCNC1=O)C(=O)COC(F)(F)F)c1nnc(Nc2ccccc2)o1` [Compound 461, N-((S)-3-cyclopropyl-1-oxo-1-(((S)-3-oxo-1-((S)-2-oxopyrrolidin-3-yl)-4-(trifluoromethoxy)butan-2-yl)amino)propan-2-yl)-5-(phenylamino)-l,3,4-oxadiazole-2-carboxamide], the EC50 is 0.2 to 0.5 µM.

Regarding `O=C(N[C@@H](CC1CC1)C(=O)N[C@@H](C[C@@H]1CCNC1=O)C(=O)COC(F)(F)F)c1cc(Cc2ccccc2)on1` [Compound 462, 5-benzyl-N-((S)-3-cyclopropyl-1-oxo-1-(((S)-3-oxo-1-((S)-2-oxopyrrolidin-3-yl)-4-(trifluoromethoxy)butan-2-yl)amino)propan-2-yl)isoxazole-3-carboxamide], the EC50 was below 0.05 µM.

For `CC(C)C[C@H](NC(=O)c1cc(-c2ccccn2)on1)C(=O)N[C@@H](C[C@@H]1CCNC1=O)C(=O)COC(F)(F)F` [Compound 464, N-((S)-4-methyl-1-oxo-1-(((S)-3-oxo-1-((S)-2-oxopyrrolidin-3-yl)-4-(trifluoromethoxy)butan-2-yl)amino)pentan-2-yl)-5-(pyridin-2-yl)isoxazole-3-carboxamide], the EC50 was below 0.05 µM.

With `CC(C)C[C@H](Nc1cc2ccccc2[nH]c1=O)C(=O)N[C@@H](C[C@@H]1CCNC1=O)C(=O)COC(F)(F)F` [Compound 465, (S)-4-methyl-2-((2-oxo-1,2-dihydroquinolin-3-yl)amino)-N-((S)-3-oxo-1-((S)-2-oxopyrrolidin-3-yl)-4-(trifluoromethoxy)butan-2-yl)pentanamide], the EC50 lay in the range of 0.2 to 0.5 µM.

As to `COc1cccc2cc(C(=O)N[C@@H](CC(C)C)C(=O)N[C@@H](C[C@@H]3CCNC3=O)C(=O)COC(F)(F)F)oc12` [Compound 466, 7-methoxy-N-((S)-4-methyl-1-oxo-1-(((S)-3-oxo-1-((S)-2-oxopyrrolidin-3-yl)-4-(trifluoromethoxy)butan-2-yl)amino)pentan-2-yl)benzofuran-2-carboxamide], the EC50 is below 0.05 µM.

On to `O=C(NC1CCCCC1)C(=O)N1C[C@@H]2CCC[C@@H]2[C@H]1C(=O)N[C@@H](C[C@@H]1CCNC1=O)C(=O)COC(F)(F)F` [Compound 467, (1S,3aR,6aS)-2-(2-(cyclohexylamino)-2-oxoacetyl)-N-((S)-3-oxo-1-((S)-2-oxopyrrolidin-3-yl)-4-(trifluoromethoxy)butan-2-yl)octahydrocyclo-penta[c]pyrrole-1-carboxamide], for which the EC50 fell in the range of 0.5 to 1 µM.

Consider `CC1(C)[C@@H]2[C@@H](C(=O)N[C@@H](C[C@@H]3CCNC3=O)C(=O)COC(F)(F)F)N(C(=O)c3csc(C(F)(F)F)n3)C[C@@H]21` [Compound 468, (1R,2S,5S)-6,6-dimethyl-N-((S)-3-oxo-1-((S)-2-oxopyrrolidin-3-yl)-4-(trifluoromethoxy)butan-2-yl)-3-(2-(trifluoromethyl)-thiazole-4-carbonyl)-3-azabicyclo[3.1.0]-hexane-2-carboxamide], for which the EC50 lay within 0.05 to 0.2 µM.

Turning to `CC1(NC(=O)C(=O)N2C[C@H]3[C@@H]([C@H]2C(=O)N[C@@H](C[C@@H]2CCNC2=O)C(=O)COC(F)(F)F)C3(C)C)CC1` [Compound 469, (1R,2S,5S)-6,6-dimethyl-3-(2-((l-methylcyclopropyl)-amino)-2-oxoacetyl)-N-((S)-3-oxo-1-((S)-2-oxopyrrolidin-3-yl)-4-(trifluoromethoxy)butan-2-yl)-3-azabicyclo[3.1.0]-hexane-2-carboxamide], the EC50 lay within 0.05 to 0.2 µM.

Regarding `CC1(C)[C@@H]2[C@@H](C(=O)N[C@@H](C[C@@H]3CCCNC3=O)C(=O)COC(F)(F)F)N(C(=O)C(=O)NC3CCCCC3)C[C@@H]21` [Compound 470, (1R,2S,5S)-3-(2-(cyclohexylamino)-2-oxoacetyl)-6,6-dimethyl-N-((S)-3-oxo-1-((S)-2-oxopiperidin-3-yl)-4-(trifluoromethoxy)butan-2-yl)-3-azabicyclo[3.1.0]-hexane-2-carboxamide], the EC50 was below 0.05 µM.

Take `CC(C)(NC(=O)C(=O)N1Cc2ccccc2C[C@H]1C(=O)N[C@@H](C[C@@H]1CCNC1=O)C(=O)COC(F)(F)F)C(F)(F)F` [Compound 472, (S)-N-((S)-3-oxo-1-((S)-2-oxopyrrolidin-3-yl)-4-(trifluoromethoxy)butan-2-yl)-2-(2-oxo-2-((1,1,1-trifluoro-2-methylpropan-2-yl)amino)acetyl)-1,2,3,4-tetrahydro-isoquinoline-3-carboxamide]: the 50% effective concentration (EC50) lay within 0.05 to 0.2 µM.

For `Cc1ccccc1NC(=O)C(=O)N1C[C@H]2[C@@H]([C@H]1C(=O)N[C@@H](C[C@@H]1CCNC1=O)C(=O)COC(F)(F)F)C2(C)C` [Compound 473, (1R,2S,5S)-6,6-dimethyl-N-((S)-3-oxo-1-((S)-2-oxopyrrolidin-3-yl)-4-(trifluoromethoxy)butan-2-yl)-3-(2-oxo-2-(o-tolylamino)acetyl)-3-azabicyclo[3.1.0]hexane-2-carboxamide], the EC50 was below 0.05 µM.
